Assay [1] addresses Cyclin-dependent kinase 1 (Saccharomyces cerevisiae S288c, UniProt P00546). Briefly: Inhibition of cyclin-dependent kinase activity of Cdc28p/CDK2p in Saccharomyces cerevisiae.
Assay [2] has as its system Saccharomyces cerevisiae. Briefly: Global transcription profiling experiment to examine the changes in the mRNA levels in the wt laboratory strain treated with the concentration of borrelidin ([…]) that inhibitedcontinued growth of wt yeast. It is filed as functional.
For assay [3], the system named is Saccharomyces cerevisiae. The assay can be described thus: Ability to inhibit cell proliferation of Saccharomyces cerevisiae strain BY4741. It is filed as functional, organism-based.

Chain of Cyclin-dependent kinase 1 (P00546 whole entry): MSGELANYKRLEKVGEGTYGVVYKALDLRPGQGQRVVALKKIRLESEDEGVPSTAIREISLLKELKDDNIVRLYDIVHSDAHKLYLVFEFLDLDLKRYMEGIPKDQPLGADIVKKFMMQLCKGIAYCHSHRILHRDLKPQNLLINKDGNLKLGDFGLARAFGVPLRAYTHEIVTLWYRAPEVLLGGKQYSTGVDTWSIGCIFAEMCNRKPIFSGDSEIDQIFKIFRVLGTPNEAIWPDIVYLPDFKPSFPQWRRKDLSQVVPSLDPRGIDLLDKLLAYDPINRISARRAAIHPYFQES

Regarding `C[C@@H]1C[C@H](C)C[C@H](C)[C@@H](O)CC(=O)O[C@H]([C@@H]2CCC[C@H]2C(=O)O)C/C=C/C=C(/C#N)[C@H](O)[C@@H](C)C1` [BORRELIDIN], the IC50 was 24 µM in assay [1] and 23 µM in assay [3]. Also, the Inhibition in assay [2] came to 75%.

These data come from ChEMBL document CHEMBL1136091, “Borrelidin induces the transcription of amino acid biosynthetic enzymes via a GCN4-dependent pathway” (Bioorg Med Chem Lett, 2003).
